# Data as given in patent publication US20150005381A1, “METHOD FOR MODULATING STEM CELL GROWTH” (SUCAMPO AG, priority 2008, published 2015).
# What was measured:
# [1] = tested on: full-thickness excisional wound in diabetic mice; assay: Excisional wound healing in diabetic mice; format: in vivo, female diabetic (BKS.Cg-+Lepr^db/+Lepr^db/Jcl) mice; details: ointment, Table 3
# Experimental: The effect of Compound A (11-deoxy-13,14-dihydro-15-keto-16,16-difluoro-PGE1) on excisional wound healing was tested. A full-thickness excisional wound (1.5×1.5 cm) was made on the back of female diabetic (BKS.Cg-+Lepr^db/+Lepr^db/Jcl) mice at the age of 12 weeks. The excisional wound was covered with the perforated film dressing. Each test ointment was put into a 1-mL disposable polypropylene syringe to which a 21G hypodermic needle is attached, and 0.1 mL of the test ointment was applied to the wound by sticking the hypodermic needle into the film dressing, which covers the excisional wound. The application was performed once a day for 21 days starting from the day when the excisional wound was made; the day when the excisional wound was made was defined as Day 1. For histological examination, the skin including the excisional wound was obtained from animals treated with each test ointment for 6 days, and was served for immunostaining with antibody against Ki67, a marker protein of proliferating cells. The outline of each excisional wound was traced before application (Day 1) and Days 6, 8, 11, 13, 15, 18, 20, and 22 of administration. The traced excisional wound area was measured with an area-line meter. […]
# [2] = tested on: nigro-striatal dopaminergic neurons of MPTP-treated mice; assay: Effect on impaired dopaminergic neurons in MPTP-treated mice (TH immunostaining); format: in vivo, male C57BL/6 mice; details: Day 8; for Area of TH-positive immunostained fibers in striatum, mean ± S.E. / TH-positive immunostained cells in substantia nigra, mean ± S.E.: MPTP-treated mice
# Experimental: The effect of Compound A (11-deoxy-13,14-dihydro-15-keto-16,16-difluoro-PGE1) on impaired neuron was tested. 1-methyl-4-phenyl-1,2,3,6-tetrahydropyridine hydrochloride (MPTP) was intraperitoneally administered to male C57BL/6 mice aged 10 weeks at 15 mg/kg/dose 4 times a day with an approximately 3-hour interval between doses for 2 days (experimental Day 1 and Day 2) to destroy the dopaminergic neuron in the brain. On the day following the final MPTP administration (on Day 3), some MPTP-treated mice were sacrificed to estimate the severity of degeneration and loss of nigro-striatal dopamine neurons by measuring the area of tyrosine hydroxylase (TH)-positive immunostained fibers in striatum. Other MPTP-treated mice were orally administered Compound A (11-deoxy-13,14-dihydro-15-keto-16,16-difluoro-PGE1) or the vehicle twice a day for 5 days (from Day 3 to Day 7) starting from the day following the final MPTP administration. The mice were decapitated on the day following the final administration of Compound A or the vehicle (on Day 8), and the whole brain was removed by incision of the skull, and placed into Bouin's fluid (pH 3.5-4.0). The brain section at the level of striatum (0.74 mm anterior to bregma) and substantia nigra (3.08 mm posterior to bregma) was cut out. After dehydration, the paraffin embedding of the slices was employed. Sections (about 6 μm thick) were prepared out of each of the slices at Bregma 0.74 mm and Bregma −3.08 mm, and the sections were used for TH immunostaining. The number of TH-positive immunostained cells in the right substantia nigra compacta (SNC) at Bregma −3.08 mm was counted by visual observation using an optical microscope OLYMPUS BH-2 (Olympus Corp.) with a ×20 microscope objective. For measuring the area of TH-positive immunostained fibers in striatum, an image obtained with an optical microscope OLYMPUS BH-2 (Olympus Corp.) with a ×40 microscope objective of TH-positive immunostained fibers in the right caudate putamen (CPu) at Bregma 0.74 mm was incorporated into a computer through OLYMPUS MCD-350, and the area of TH-positive fibers larger than 5 μm^2 was measured using an image analyzer Win ROOF (V5.6, Mitani Corp.), and expressed in term of an area of 1 mm^2.
# [3] = Compound A 0.1 mg/kg orally twice a day for 5 days
# [4] = Compound A 1 mg/kg orally twice a day for 5 days
compound,measurement,setting,value
"CCCCC(F)(F)C(=O)CCC1CCC(=O)C1CCCCCCC(=O)O (stereo not shown) [Compound A, 11-deoxy-13,14-dihydro-15-keto-16,16-difluoro-PGE1]","Skin wound healing, in words",[1],accelerated skin wound healing
same,Mean area of TH-positive fibers in the striatum compared to MPTP+Vehicle (control) group,[2]; 0.1 mg/kg and 1 mg/kg groups,significantly greater mean area of TH-positive fibers in the striatum
same,"Number of TH-positive immunostained cells in the substantia nigra, trend in words",[2]; 0.1 and 1 mg/kg orally,increased the number of TH-positive immunostained cells in the substantia nigra in a dose-dependent manner
same,"Area of TH-positive immunostained fibers in striatum, mean ± S.E.",[2]; [3],0.0465 ± 0.0102 mm2
same,"TH-positive immunostained cells in substantia nigra, mean ± S.E.",[2]; [3],35.2 ± 5.0 Number of cells
same,"Area of TH-positive immunostained fibers in striatum, mean ± S.E.",[2]; [4],0.0444 ± 0.0092 mm2
same,"TH-positive immunostained cells in substantia nigra, mean ± S.E.",[2]; [4],44.4 ± 5.0 Number of cells
